{"source": "patent US6696249B1", "about": "“Method for screening for inhibitors and activators of type III secretion machinery in gram-negative bacteria” (priority 1998, dated 2004)", "key": {"[1]": {"tested_on": "ipaH9.8-, ipaH7.8-, ipaH4.5-, and ipaH1.4-lacZ fusions", "assay": "ipaH-lacZ fusions taken together, β-galactosidase activity in vitro", "type": "cell-based, Shigella flexneri", "conditions": "100 μg/ml of Congo red"}, "ipaH9.8-lacZ fusion": {"tested_on": "ipaH9.8-lacZ fusion", "assay": "ipaH9.8-lacZ transcriptional fusion, β-galactosidase activity in vitro", "type": "cell-based, Shigella flexneri", "conditions": "ipaD+ strain"}, "ipaH7.8-lacZ fusion": {"tested_on": "ipaH7.8-lacZ fusion", "assay": "ipaH7.8-lacZ transcriptional fusion, β-galactosidase activity in vitro", "type": "cell-based, Shigella flexneri", "conditions": "ipaD+ strain"}, "ipgD-lacZ fusion": {"tested_on": "ipgD-lacZ fusion", "assay": "ipgD-lacZ transcriptional fusion, β-galactosidase activity in vitro", "type": "cell-based, Shigella flexneri"}, "virA-lacZ mxiD": {"tested_on": "virA-lacZ mxiD", "assay": "virA-lacZ transcriptional fusion in mxiD (secretion deficient) strain SF1012, β-galactosidase activity in vitro", "type": "cell-based, Shigella flexneri", "method": "(§1) All Shigella flexneri strains identified in Table I are derivatives of the wild-type strain M90T (Sansonetti et al., 1982). Bacteria were grown in Luria-Bertani (LB) medium or tryptic soy (TCS) broth. Antibiotics were used at the following concentrations: ampicillin, 100 μg/ml; kanamycin, 30 μg/ml; and streptomycin, 100 μg/ml. Congo red (SERVA, Heidelberg, Germany) was used to induce secretion by bacteria growing in LB medium.\nTo determine whether regulation of virA transcription was dependent on the type III secretion machinery, we compared the β-galactosidase activities produced by the virA-lacZ fusion in derivatives of wild-type (SF1001) and mxiD (SF1012) strains during growth in the presence of Congo red and we compared the production of VirA in ipaD and mxiD ipaD strains.\n(§2) To investigate kinetics of activation of the virA promoter, Congo red (100 μg/ml) was added to the growth medium during the exponential phase of growth of derivatives of the wild-type and mxiD strains carrying the virA-lacZ fusion. Samples were then collected at 5 min intervals and assayed for β-galactosidase activity.\n(§3) The β-galactosidase activity present in bacteria growing in laboratory media was assayed by using the substrate o-nitro-phenyl-β-D-galactoside (ONPG) as described (Platt et al, 1972). The β-galactosidase activity present in intracellular bacteria was assayed by using the substrate 4-methyl-umbelliferyl-β-D-galactoside (MUG) as described (Klarsfeld et al., 1994). Fluorescence was measured by using a Dynatec apparatus, with 365 nm excitation and 450 nm emission wavelengths. Activities were computed as fluorescence units per hour per bacterium; four fluorescence units were equivalent to one Miller unit and all results are presented in Miller units."}, "ipaH1.4-lacZ fusion": {"tested_on": "ipaH1.4-lacZ fusion", "assay": "ipaH1.4-lacZ transcriptional fusion, β-galactosidase activity in vitro", "type": "cell-based, Shigella flexneri", "conditions": "ipaD+ strain"}, "icsB-lacZ fusion": {"tested_on": "icsB-lacZ fusion", "assay": "icsB-lacZ transcriptional fusion, β-galactosidase activity in vitro", "type": "cell-based, Shigella flexneri"}, "[2]": {"tested_on": "Secretion of IpaB and IpaC", "conditions": "Parsot et al, 1995; cited from earlier work"}, "mxiD-lacZ fusion": {"tested_on": "mxiD-lacZ fusion", "assay": "mxiD-lacZ transcriptional fusion, β-galactosidase activity in vitro", "type": "cell-based, Shigella flexneri"}, "virA-lacZ fusion": {"tested_on": "virA-lacZ fusion", "type": "cell-based, Shigella flexneri", "method": "as §1\nSecretion of IpaB and IpaC is enhanced when bacteria grow in the presence of Congo red (Parsot et al, 1995). To investigate the effect of Congo red on virA transcription, we assayed the β-galactosidase activity in strain SF1001 (virA-lacZ ipaD^+) after growth in the presence of various concentrations of Congo red.\nas §2, §3"}, "ipaH4.5-lacZ fusion": {"tested_on": "ipaH4.5-lacZ fusion", "assay": "ipaH4.5-lacZ transcriptional fusion, β-galactosidase activity in vitro", "type": "cell-based, Shigella flexneri", "conditions": "ipaD+ strain"}, "ipaA-lacZ fusion": {"tested_on": "ipaA-lacZ fusion", "assay": "ipaA-lacZ transcriptional fusion, β-galactosidase activity in vitro", "type": "cell-based, Shigella flexneri"}, "[3]": {"tested_on": "icsB-, ipaA-, ipgD-, and mxiD-lacZ fusions", "assay": "entry region lacZ fusions taken together, transcription in vitro", "type": "cell-based, Shigella flexneri", "conditions": "Congo red in the growth medium"}, "[4]": {"conditions": "ipaD+ strain grown in presence of Congo red"}}, "data": [{"compound": "Nc1c(/N=N/c2ccc(-c3ccc(/N=N/c4cc(S(=O)(=O)O)c5ccccc5c4N)cc3)cc2)cc(S(=O)(=O)O)c2ccccc12", "note": "[Congo red]", "values": [{"measurement": "Times more β-galactosidase activity after growth with Congo red", "setting": "[1]", "value": "3-12 times"}, {"measurement": "Ratio li: activity with Congo red versus without Congo red", "setting": "ipaH9.8-lacZ fusion", "value": 12}, {"measurement": "β-galactosidase activity, ipaD+ + CR", "setting": "ipaH9.8-lacZ fusion; 100 μg/ml Congo red", "value": 325, "unit": "Miller units"}, {"measurement": "Ratio li: activity with Congo red versus without Congo red", "setting": "ipaH7.8-lacZ fusion", "value": 12}, {"measurement": "β-galactosidase activity, ipaD+ + CR", "setting": "ipaH7.8-lacZ fusion; 100 μg/ml Congo red", "value": 235, "unit": "Miller units"}, {"measurement": "Ratio li: activity with Congo red versus without Congo red", "setting": "ipgD-lacZ fusion; ipaD+ strain", "value": 1.1}, {"measurement": "β-galactosidase activity, ipaD+ + CR", "setting": "ipgD-lacZ fusion; [4]", "value": 475, "unit": "Miller units"}, {"measurement": "Transcriptional activation of the virA-lacZ fusion after addition of the dye", "setting": "virA-lacZ mxiD; mxiD mutant derivative, Congo red 100 μg/ml added in exponential phase", "value": "no transcriptional activation"}, {"measurement": "Increase in β-galactosidase activity on growth with Congo red", "setting": "virA-lacZ mxiD; mxiD strain carrying virA-lacZ, Congo red in growth medium", "value": "did not lead to an increase"}, {"measurement": "Ratio li: activity with Congo red versus without Congo red", "setting": "virA-lacZ mxiD; virA-lacZ mxiD strain", "value": 1.1}, {"measurement": "β-galactosidase activity, ipaD+ + CR", "setting": "virA-lacZ mxiD; virA-lacZ mxiD strain grown in presence of Congo red", "value": 18, "unit": "Miller units"}, {"measurement": "Ratio li: activity with Congo red versus without Congo red", "setting": "ipaH1.4-lacZ fusion", "value": 5.1}, {"measurement": "β-galactosidase activity, ipaD+ + CR", "setting": "ipaH1.4-lacZ fusion; 100 μg/ml Congo red", "value": 270, "unit": "Miller units"}, {"measurement": "Ratio li: activity with Congo red versus without Congo red", "setting": "icsB-lacZ fusion; ipaD+ strain", "value": 1.0}, {"measurement": "β-galactosidase activity, ipaD+ + CR", "setting": "icsB-lacZ fusion; [4]", "value": 285, "unit": "Miller units"}, {"measurement": "Secretion of IpaB and IpaC when bacteria grow in the presence of Congo red", "setting": "[2]", "value": "enhanced"}, {"measurement": "Ratio li: activity with Congo red versus without Congo red", "setting": "mxiD-lacZ fusion; ipaD+ strain", "value": 1.2}, {"measurement": "β-galactosidase activity, ipaD+ + CR", "setting": "mxiD-lacZ fusion; [4]", "value": 320, "unit": "Miller units"}, {"measurement": "Concentration of Congo red at which virA-lacZ transcription reaches a plateau", "setting": "virA-lacZ fusion", "value": "about 100 μg/ml"}, {"measurement": "Transcription of the virA-lacZ fusion at low dye concentrations", "setting": "virA-lacZ fusion; SF1001, concentrations of dye up to 20 μg/ml", "value": "low"}, {"measurement": "Ratio li: activity with Congo red versus without Congo red", "setting": "virA-lacZ fusion; virA-lacZ, ipaD+ strain", "value": 17}, {"measurement": "β-galactosidase activity, ipaD+ + CR", "setting": "virA-lacZ fusion; virA-lacZ, ipaD+ strain grown in presence of 100 μg/ml Congo red, mean of at least three experiments", "value": 280, "unit": "Miller units"}, {"measurement": "Time after addition of the dye at which an increase in β-galactosidase specific activity was detected", "setting": "virA-lacZ fusion; wild-type derivative, Congo red 100 μg/ml added in exponential phase, samples at 5 min intervals", "value": 10, "unit": "min"}, {"measurement": "Ratio li: activity with Congo red versus without Congo red", "setting": "ipaH4.5-lacZ fusion", "value": 3.5}, {"measurement": "β-galactosidase activity, ipaD+ + CR", "setting": "ipaH4.5-lacZ fusion; 100 μg/ml Congo red", "value": 110, "unit": "Miller units"}, {"measurement": "Ratio li: activity with Congo red versus without Congo red", "setting": "ipaA-lacZ fusion; ipaD+ strain", "value": 0.8}, {"measurement": "β-galactosidase activity, ipaD+ + CR", "setting": "ipaA-lacZ fusion; [4]", "value": 390, "unit": "Miller units"}, {"measurement": "Effect of Congo red in growth medium on transcription", "setting": "[3]", "value": "not affected"}]}]}
